The source of these data is patent US6914158B2, “Amidino compounds useful as nitric oxide synthase inhibitors” (Pharmacia Corporation, priority 2000, dated 2005).

Counter-ions that a name gives are not always drawn.

The assay deals with T1, iNOS in human cartilage explants (Homo sapiens, UniProt P35228).
T1 construct: from tissue; host or cells: human cartilage explants stimulated with recombinant human IL-1β
Kind of assay: Human cartilage explant assay (IL-1β-induced nitrite production). It counts as cell-based. The following applies: inhibition of nitrite production, IL-1β-stimulated explants; averages across all experiments and all lots.

Experimental: Human Cartilage Explant Assay
Cartilage was cut into small explants of approximately 15-45 mg in weight and one or two explants per well are placed into either 96 or 48 well culture plates with 200-500 μL of culture media per well. The culture media was either a custom modification of Minimum Essential Medium(Eagle) with Earle's salts (GibcoBRL) prepared without L-Arginine, without L-Glutamine and without phenol red or a custom modification of serumless Neuman and Tytell (GibcoBRL) medium prepared without L-arginine, without insulin, without ascorbic acid, without L-glutamine and without phenol red. Both are supplemented before use with 100 μM L-Arginine (Sigma), 2 mM L-glutamine, 1×HL-1 supplement (BioWhittaker), 50 mg/ml ascorbic acid (Sigma) and 150 pg/ml recombinant human IL-1β (RD Systems) to induce nitric oxide synthase. Compounds are then added in 10 μL aliquots and the explants incubated at 37° C. with 5% CO2 for 18-24 hours. The day old supernatant is then discarded and replaced with fresh culture media containing recombinant human IL-1β and compound and incubated for another 20-24 hours. This supernatant is analyzed for nitrite with a fluorometric assay (Misko et al, Anal. Biochem., 214, 11-16, 1993). […] IC50 values (Table 1) are determined from plotting the percent inhibition of nitrite production at six different concentrations of inhibitor.

For `CC(=N)NCCSC[C@](C)(N)C(=O)O` [Example 1, S-[2-[(1-Iminoethyl)amino]ethyl]-2-methyl-L-cysteine, dihydrochloride], the IC50 was found to be 700 nM.
On to `CC(=N)NCCSCC(C)(N)C(=O)O` (stereo not drawn) [Example 16, S-[2-(1-Iminoethylamino)ethyl]-2-methyl-(D/L)-cysteine, bistrifluoroacetate], for which the IC50 was found to be 700 nM.

What is called IC50 is the concentration that inhibits the measured activity by half. Low values mean greater potency, high ones weaker potency.
